Experiments:
Candida albicans TA = assay: protective effect against experimental infection in mice (survival rate 7 days after infection); type: in vivo, Crj:CDF1 mice; conditions: po, 168 h, survival 7 days after infection
Protocol: (§1) Test Method: Five-week-old Crj:CDF1 mice were inoculated with the minimum lethal dose of Candida albicans TA intravenously. The test compound was suspended in a solution of 0.2% or 0.5% sodium carboxymethylcellulose (CMC). The suspension was administered orally once immediately after infection. The activity was expressed in terms of ED50 values calculated by the Reed and Muench method from the survival rate 7 days after infection.
as §1, with “of” for “of 0.2% or”

[1] = tested on: Candida albicans IFO 0583; assay: growth inhibition zone, paper disc agar diffusion; type: cell-based; conditions: IFO0583, 48 h, Table 6, Medium A, 1000 μg/ml, 28° C., two-day culture, read-out: Diameter of growth-inhibition zone
Protocol: Evaluation of the antifungal activities of the compound of the present invention was conducted by the following method: a sheet of filter paper disc (manufactured by Toyo Seisakusho, 8 mm in diameter) soaked in a 1000 μg/ml solution of a compound of the present invention in methanol was placed on an agar plate containing various fungi, which was incubated at 28° C. for two days, and the diameter of the growth inhibition zone around the filter paper disc was measured. The following culture media were used:
A: yeast nitrogen base agar medium (pH 7.0)
B: peptone-yeast extract-glucose agar medium (pH 7.0)

[2] = Table 7, P.O. once immediately after infection, 0.2% CMC
[3] = Table 8, P.O. once immediately after infection, 0.5% CMC
[4] = Table 9, compounds of formula (VI), P.O. once immediately after infection, 0.5% CMC

SMILES	zone of inhibition at 1000 µg/mL [1] [mm]	ED50 (Candida albicans TA; [3]) [mg/kg]	also measured
C[C@@H](N1CC(=O)N(c2ccc(F)cc2F)C1=O)[C@](O)(Cn1cncn1)c1ccc(F)cc1F [Compound 3, 1-[(1R,2R)-2-(2,4-difluorophenyl)-2-hydroxy-1-methyl-3-(1H-1,2,4-triazol-1-yl)propyl]-3-(2,4-difluorophenyl)-2,4-imidazolidinedione]	41	–	ED50 (Candida albicans TA; [2]): 2 mg/kg
C[C@@H](N1CCN(c2ccc(F)cc2)C1=O)[C@](O)(Cn1cncn1)c1ccc(F)cc1F [Compound 5, 1-[(1R,2R)-2-(2,4-difluorophenyl)-2-hydroxy-1-methyl-3-(1H-1,2,4-triazol-1-yl)propyl]-3-(4-fluorophenyl)-2-imidazolidinone]	47	–	–
C[C@@H](N1CCN(c2ccc(OCC(F)(F)C(F)F)cc2)C1=O)[C@](O)(Cn1cncn1)c1ccc(F)cc1F [Compound 6, 1-[(1R,2R)-2-(2,4-difluorophenyl)-2-hydroxy-1-methyl-3-(1H-1,2,4-triazol-1-yl)propyl]-3-[4-(2,2,3,3-tetrafluoropropoxy)phenyl]-2-imidazolidinone]	36	0.71	–
C[C@@H](N1CCN(c2ccc(OC(F)(F)C(F)F)cc2)C1=O)[C@](O)(Cn1cncn1)c1ccc(F)cc1F [Compound 7, 1-[(1R,2R)-2-(2,4-difluorophenyl)-2-hydroxy-1-methyl-3-(1H-1,2,4-triazol-1-yl)propyl]-3-[4-(1,1,2,2-tetrafluoroethoxy)phenyl]-2-imidazolidinone]	35	0.35	ED50 (Candida albicans TA; [2]): 0.65 mg/kg
C[C@@H](N1CCN(c2ccc(OCC(F)(F)C(F)(F)F)cc2)C1=O)[C@](O)(Cn1cncn1)c1ccc(F)cc1F [Compound 8, 1-[(1R,2R)-2-(2,4-difluorophenyl)-2-hydroxy-1-methyl-3-(1H-1,2,4-triazol-1-yl)propyl]-3-[4-(2,2,3,3,3-pentafluoropropoxy)phenyl]-2-imidazolidinone]	28	–	ED50 (Candida albicans TA; [2]): 2 mg/kg
C[C@@H](N1CCN(c2ccc(OCC(F)(F)F)cc2)C1=O)[C@](O)(Cn1cncn1)c1ccc(F)cc1F [Compound 9, 1-[(1R,2R)-2-(2,4-difluorophenyl)-2-hydroxy-1-methyl-3-(1H-1,2,4-triazol-1-yl)propyl]-3-[4-(2,2,2-trifluoroethoxy)phenyl]-2-imidazolidinone]	41	–	ED50 (Candida albicans TA; [2]): 0.65 mg/kg
C[C@@H](N1CCN(c2ccc(Cl)cc2)C1=O)[C@](O)(Cn1cncn1)c1ccc(F)cc1F [Compound 10, 1-(4-chlorophenyl)-3-[(1R,2R)-2-(2,4-difluorophenyl)-2-hydroxy-1-methyl-3-(1H-1,2,4-triazol-1-yl)propyl]-2-imidazolidinone]	42	–	ED50 (Candida albicans TA; [2]): 1.8 mg/kg
C[C@@H](N1CC(=O)N(c2ccc(OCC(F)(F)C(F)F)cc2)CC1=O)[C@](O)(Cn1cncn1)c1ccc(F)cc1F [Compound 11, 1-[(1R,2R)-2-(2,4-difluorophenyl)-2-hydroxy-1-methyl-3-(1H-1,2,4-triazol-1-yl)propyl]-4-[4-(2,2,3,3-tetrafluoropropoxy)phenyl]-2,5-piperazinedione]	31	–	–
C[C@@H](N1CC(=O)N(c2ccc(OC(F)(F)C(F)F)cc2)CC1=O)[C@](O)(Cn1cncn1)c1ccc(F)cc1F [Compound 12, 1-[(1R,2R)-2-(2,4-difluorophenyl)-2-hydroxy-1-methyl-3-(1H-1,2,4-triazol-1-yl)propyl]-4-[4-(1,1,2,2-tetrafluoroethoxy)phenyl]-2,5-peperazinedione]	–	2.8	–
C[C@@H](N1CCN(c2ccc(OCC(F)(F)C(F)F)cc2)C(=O)C1=O)[C@](O)(Cn1cncn1)c1ccc(F)cc1F [Compound 14, 1-[(1R,2R)-2-(2,4-difluorophenyl)-2-hydroxy-1-methyl-3-(1H-1,2,4-triazol-1-yl)propyl]-4-[4-(2,2,3,3-tetrafluoropropoxy)phenyl]-2,3-piperazinedione]	–	2.8	–
C[C@@H](N1CCN(c2ccc(OC(F)(F)C(F)F)cc2)C(=O)C1=O)[C@](O)(Cn1cncn1)c1ccc(F)cc1F [Compound 15, 1-[(1R,2R)-2-(2,4-difluorophenyl)-2-hydroxy-1-methyl-3-(1H-1,2,4-triazol-1-yl)propyl]-4-[4-(1,1,2,2-tetrafluoroethoxy)phenyl]-2,3-piperazinedione]	–	2	–
C[C@@H](N1CCN(c2ccc(OC(F)(F)C(F)F)cc2)C1=O)[C@](O)(Cn1cncn1)c1ccccc1F [Compound 16, 1-[(1R,2R)-2-(2-fluorophenyl)-2-hydroxy-1-methyl-3-(1H-1,2,4-triazol-1-yl)propyl]-3-[4-(1,1,2,2-tetrafluoroethoxy)phenyl]-2-imidazolidinone]	–	0.35	–
C[C@@H](N1CCN(c2ccc(OCC(F)(F)C(F)F)cc2)C1=O)[C@](O)(Cn1cncn1)c1ccccc1F [Compound 17, 1-[(1R,2R)-2-(2-fluorophenyl)-2-hydroxy-1-methyl-3-(1H-1,2,4-triazol-1-yl)propyl]-3-[4-(2,2,3,3-tetrafluoropropoxy)phenyl]-2-imidazolidinone]	–	0.65	–
C[C@@H](N1CCN(c2ccc(OC(F)(F)C(F)F)cc2)C1=O)[C@](O)(Cn1cncn1)c1ccc(F)cc1 [Compound 18, 1-[(1R,2R)-2-(4-fluorophenyl)-2-hydroxy-1-methyl-3-(1H-1,2,4-triazol-1-yl)propyl]-3-[4-(1,1,2,2-tetrafluoroethoxy)phenyl]-2-imidazolidinone]	–	0.35	–
C[C@@H](N1CCN(c2ccc(OCC(F)(F)C(F)F)cc2)C1=O)[C@](O)(Cn1cncn1)c1ccc(F)cc1 [Compound 19, 1-[(1R,2R)-2-(4-fluorophenyl)-2-hydroxy-1-methyl-3-(1H-1,2,4-triazol-1-yl)propyl]-3-[4-(2,2,3,3-tetrafluoropropoxy)phenyl]-2-imidazolidinone]	–	0.77	–
C[C@@H](n1ccn(-c2ccc(OC(F)(F)C(F)F)cc2)c1=O)[C@](O)(Cn1cncn1)c1ccc(F)cc1 [Reference Example 45, 1-[(1R,2R)-2-(4-fluorophenyl)-2-hydroxy-1-methyl-3-(1H-1,2,4-triazol-1-yl)propyl]-3-[4-(1,1,2,2-tetrafluoroethoxy)phenyl]-2(1H,3H)-imidazolone]	–	–	ED50 (Candida albicans TA; [4]): 0.18 mg/kg
C[C@@H](n1ccn(-c2ccc(OCC(F)(F)C(F)F)cc2)c1=O)[C@](O)(Cn1cncn1)c1ccc(F)cc1 [Reference Example 46, 1-[(1R,2R)-2-(4-fluorophenyl)-2-hydroxy-1-methyl-3-(1H-1,2,4-triazol-1-yl)propyl]-3-[4-(2,2,3,3-tetrafluoropropoxy)phenyl]-2(1H,3H)-imidazolone]	–	–	ED50 (Candida albicans TA; [4]): 0.32 mg/kg
C[C@@H](n1ccn(-c2ccc(OC(F)(F)C(F)F)cc2)c1=O)[C@](O)(Cn1cncn1)c1ccccc1F [Reference Example 49, 1-[(1R,2R)-2-(2-fluorophenyl)-2-hydroxy-1-methyl-3-(1H-1,2,4-triazol-1-yl)propyl]-3-[4-(1,1,2,2-tetrafluoroethoxy)phenyl]-2(1H,3H)-imidazolone]	–	–	ED50 (Candida albicans TA; [4]): 0.18 mg/kg
C[C@@H](n1ccn(-c2ccc(OCC(F)(F)C(F)F)cc2)c1=O)[C@](O)(Cn1cncn1)c1ccccc1F [Reference Example 50, 1-[(1R,2R)-2-(2-fluorophenyl)-2-hydroxy-1-methyl-3-(1H-1,2,4-triazol-1-yl)propyl]-3-[4-(2,2,3,3-tetrafluoropropoxy)phenyl]-2(1H,3H)-imidazolone]	–	–	ED50 (Candida albicans TA; [4]): 0.32 mg/kg

From US5792780A, “Azole compounds, their production and use” (Takeda Chemical Industries, Ltd., priority 1993, dated 1998)
